# Active and inactive are the calls of the source. The calls are words filed in the database; no cut-off is given here.
# What was measured:
# RAW264.7 [1] = assay: Antiinflammatory activity in LPS-stimulated mouse RAW264.7 cells assessed as reduction in nitric oxide production at 3 uM after 24 hrs by Griess method based ELISA (reference value: 52.4 +/- 0.9 uM); assay type: functional
# [2] = Cytotoxicity against LPS-stimulated mouse RAW264.7 cells assessed as cell viability at 3 uM after 24 hrs by MTT assay (reference value: 100%); assay type: cell-based; conditions: LPS-stimulated RAW264.7 cells, read-out: Activity
# RAW264.7 [3] = assay: Antiinflammatory activity in LPS-stimulated mouse RAW264.7 cells assessed as reduction in nitric oxide production at 1.5 uM after 24 hrs by Griess method based ELISA (reference value: 52.4 +/- 0.9 uM); assay type: functional
# [4] = Cytotoxicity against LPS-stimulated mouse RAW264.7 cells assessed as cell viability at 1.5 uM after 24 hrs by MTT assay (reference value: 100%); assay type: cell-based; conditions: LPS-stimulated RAW264.7 cells, read-out: Activity
# RAW264.7 [5] = assay: Antiinflammatory activity in LPS-stimulated mouse RAW264.7 cells assessed as reduction in nitric oxide production after 24 hrs by Griess method based ELISA; assay type: functional, cell-based; conditions: RAW264.7, 24 h
# RAW264.7 [6] = assay: Antiinflammatory activity in LPS-stimulated mouse RAW264.7 cells assessed as reduction in COX2 expression at 40 uM co-incubated with LPS for 24 hrs by RT-PCR method relative to untreated control; assay type: functional
# RAW264.7 [7] = assay: Antiinflammatory activity in LPS-stimulated mouse RAW264.7 cells assessed as reduction in IL-1beta expression at 40 uM co-incubated with LPS for 24 hrs by RT-PCR method relative to untreated control; assay type: functional
# [8] = Cytotoxicity against LPS-stimulated mouse RAW264.7 cells assessed as cell viability at 40 uM after 24 hrs by MTT assay (reference value: 100%); assay type: cell-based; conditions: LPS-stimulated RAW264.7 cells, read-out: Activity
# RAW264.7 [9] = assay: Antiinflammatory activity in LPS-stimulated mouse RAW264.7 cells assessed as reduction in IL6 expression at 80 uM co-incubated with LPS for 24 hrs by RT-PCR method relative to untreated control; assay type: functional
# RAW264.7 [10] = assay: Antiinflammatory activity in LPS-stimulated mouse RAW264.7 cells assessed as reduction in IL-1beta expression at 120 uM co-incubated with LPS for 24 hrs by RT-PCR method relative to untreated control; assay type: functional
# RAW264.7 [11] = assay: Antiinflammatory activity in LPS-stimulated mouse RAW264.7 cells assessed as reduction in TNFalpha expression at 40 uM co-incubated with LPS for 24 hrs by RT-PCR method relative to untreated control; assay type: functional
# RAW264.7 [12] = assay: Antiinflammatory activity in LPS-stimulated mouse RAW264.7 cells assessed as reduction in iNOS expression at 80 uM co-incubated with LPS for 24 hrs by RT-PCR method relative to untreated control; assay type: functional
# RAW264.7 [13] = assay: Antiinflammatory activity in LPS-stimulated mouse RAW264.7 cells assessed as reduction in iNOS expression at 120 uM co-incubated with LPS for 24 hrs by RT-PCR method relative to untreated control; assay type: functional
# RAW264.7 [14] = assay: Antiinflammatory activity in LPS-stimulated mouse RAW264.7 cells assessed as reduction in TNFalpha expression at 120 uM co-incubated with LPS for 24 hrs by RT-PCR method relative to untreated control; assay type: functional
# [15] = Cytotoxicity against LPS-stimulated mouse RAW264.7 cells assessed as cell viability at 120 uM after 24 hrs by MTT assay (reference value: 100%); assay type: cell-based; conditions: LPS-stimulated RAW264.7 cells, read-out: Activity
# RAW264.7 [16] = assay: Induction of iNOS mRNA expression in LPS-non-stimulated mouse RAW264.7 cells by RT-PCR method; assay type: cell-based
# RAW264.7 [17] = assay: Antiinflammatory activity in LPS-stimulated mouse RAW264.7 cells assessed as reduction in IL6 expression at 120 uM co-incubated with LPS for 24 hrs by RT-PCR method relative to untreated control; assay type: functional
# RAW264.7 [18] = assay: Antiinflammatory activity in LPS-stimulated mouse RAW264.7 cells assessed as reduction in IL6 level at 40 uM co-incubated with LPS for 24 hrs by ELISA method; assay type: functional, cell-based
# RAW264.7 [19] = assay: Antiinflammatory activity in LPS-stimulated mouse RAW264.7 cells assessed as reduction in nitric oxide production at 120 uM after 24 hrs by Griess method based ELISA (reference value: 52.4 +/- 0.9 uM); assay type: functional
# RAW264.7 [20] = assay: Antiinflammatory activity in LPS-stimulated mouse RAW264.7 cells assessed as reduction in IL6 expression at 40 uM co-incubated with LPS for 24 hrs by RT-PCR method relative to untreated control; assay type: functional
# RAW264.7 [21] = assay: Antiinflammatory activity in LPS-stimulated mouse RAW264.7 cells assessed as reduction in iNOS expression co-incubated with LPS for 24 hrs by RT-PCR method relative to untreated control; assay type: functional, cell-based
# RAW264.7 [22] = assay: Antiinflammatory activity in LPS-stimulated mouse RAW264.7 cells assessed as reduction in iNOS expression at 40 uM co-incubated with LPS for 24 hrs by RT-PCR method relative to untreated control; assay type: functional
# RAW264.7 [23] = assay: Antiinflammatory activity in LPS-stimulated mouse RAW264.7 cells assessed as reduction in COX2 expression at 120 uM co-incubated with LPS for 24 hrs by RT-PCR method relative to untreated control; assay type: functional
# [24] = Cytotoxicity against LPS-stimulated mouse RAW264.7 cells assessed as cell viability at 80 uM after 24 hrs by MTT assay (reference value: 100%); assay type: cell-based; conditions: LPS-stimulated RAW264.7 cells, read-out: Activity
# RAW264.7 [25] = assay: Antiinflammatory activity in LPS-stimulated mouse RAW264.7 cells assessed as reduction in nitric oxide production at 80 uM after 24 hrs by Griess method based ELISA (reference value: 52.4 +/- 0.9 uM); assay type: functional
# RAW264.7 [26] = assay: Antiinflammatory activity in LPS-stimulated mouse RAW264.7 cells assessed as reduction in TNFalpha expression at 80 uM co-incubated with LPS for 24 hrs by RT-PCR method relative to untreated control; assay type: functional
# RAW264.7 [27] = assay: Antiinflammatory activity in LPS-stimulated mouse RAW264.7 cells assessed as reduction in nitric oxide production at 40 uM after 24 hrs by Griess method based ELISA (reference value: 52.4 +/- 0.9 uM); assay type: functional
# RAW264.7 [28] = assay: Antiinflammatory activity in LPS-stimulated mouse RAW264.7 cells assessed as reduction in IL-1beta expression at 80 uM co-incubated with LPS for 24 hrs by RT-PCR method relative to untreated control; assay type: functional
# RAW264.7 [29] = assay: Antiinflammatory activity in LPS-stimulated mouse RAW264.7 cells assessed as reduction in COX2 expression at 80 uM co-incubated with LPS for 24 hrs by RT-PCR method relative to untreated control; assay type: functional
smiles,measurement,setting,value
O=c1c(O)c(-c2ccc(O)c(O)c2)oc2cc(O)cc(O)c12 [QUERCETIN],Activity,RAW264.7 [1],13.5 µM
same,"viability at 24 h, 3 µM",[2],104%
same,Activity,RAW264.7 [3],20.8 µM
same,"viability at 24 h, 1.5 µM",[4],104%
same,IC50,RAW264.7 [5],2.9 µg/mL
CC(C)=CCC[C@@H](C)[C@H]1CC[C@@]2(C)[C@@H]3CC=C4C(C)(C)[C@@H](O[C@@H]5O[C@H](CO[C@@H]6O[C@H](CO[C@@H]7O[C@H](CO)[C@@H](O)[C@H](O)[C@H]7O)[C@@H](O)[C@H](O)[C@H]6O)[C@@H](O)[C@H](O)[C@H]5O)CC[C@]4(C)[C@H]3CC[C@]12C,fold change (FC),RAW264.7 [6],0.7
same,fold change (FC),RAW264.7 [7],1
same,"viability at 24 h, 40 µM",[8],121%
same,fold change (FC),RAW264.7 [9],1
same,fold change (FC),RAW264.7 [10],0.5
same,fold change (FC),RAW264.7 [11],0.9
same,fold change (FC),RAW264.7 [12],1.1
same,fold change (FC),RAW264.7 [13],0.6
same,fold change (FC),RAW264.7 [14],0.5
same,"viability at 24 h, 120 µM",[15],155%
same,Activity,RAW264.7 [16],Non-toxic
same,fold change (FC),RAW264.7 [17],0.6
same,inhibition,RAW264.7 [18],Active
same,Activity,RAW264.7 [19],19.8 µM
same,fold change (FC),RAW264.7 [20],0.9
same,inhibition,RAW264.7 [21],Dose-dependent effect
same,fold change (FC),RAW264.7 [22],1
same,fold change (FC),RAW264.7 [23],0.4
same,IC50,RAW264.7 [5],86.7 µg/mL
same,"viability at 24 h, 80 µM",[24],145%
same,Activity,RAW264.7 [25],27.5 µM
same,fold change (FC),RAW264.7 [26],1
same,Activity,RAW264.7 [27],40.9 µM
same,fold change (FC),RAW264.7 [28],1.1
same,fold change (FC),RAW264.7 [29],0.8

# — ChEMBL document CHEMBL3352216, “Triterpene glycosides from red ginseng marc and their anti-inflammatory activities” (Bioorg Med Chem Lett, 2014)
